Test results: ChEMBL document CHEMBL5500322, “The significance of persisters in tuberculosis drug discovery: Exploring the potential of targeting the glyoxylate shunt pathway” (Eur J Med Chem, 2024)
Converted amounts (≈) assume the structure as drawn.

Key:
[1] = system: Mycobacterium tuberculosis; test: Antimycobacterial activity against Mycobacterium tuberculosis assessed as reduction in bacterial growth; format: functional
[2] = Inhibition of Mycobacterium tuberculosis isocitrate lyase
[3] = system: Mycobacterium tuberculosis; test: Antibacterial activity against Mycobacterium tuberculosis H37Rv (ATCC 27294) assessed as bacterial growth inhibition incubated for 7 days by microdilution alamarBlue assay; format: functional; details: 168 h, time 7 day
[4] = Inhibition of N-terminal His-tagged isocitrate lyase (unknown origin) expressed in Escherichia coli BL21 (DE3)
[5] = Binding affinity to indigofera isocitrate lyase assessed as inhibition of constant; design: species or system Vogesella indigofera
[6] = system: Mycobacterium tuberculosis; test: Inhibition of Mycobacterium tuberculosis malate synthase at 1 uM relative to control
[7] = system: Mycobacterium tuberculosis; test: Binding affinity to Mycobacterium tuberculosis isocitrate lyase assessed as inactivation constant
[8] = Binding affinity to Mycobacterium tuberculosis Malate synthase assessed as inhibition constant
[9] = Inhibition of N-terminal His-tagged Mycobacterium tuberculosis malate synthase expressed in Escherichia coli BL21 (DE3)
[10] = system: Mycobacterium tuberculosis; test: Antimycobacterial activity against Mycobacterium tuberculosis H37Rv assessed as reduction in bacterial growth measured after 7 days by broth dilution method; format: functional; details: 168 h, time 7 day
[11] = system: Mycobacterium tuberculosis; test: Antimycobacterial activity against Mycobacterium tuberculosis H37Rv assessed as inhibition of bacterial growth incubated for 24 hrs by alamar blue assay; format: functional
[12] = system: Escherichia coli; test: Antibacterial activity against Escherichia coli assessed as reduction in bacterial growth; format: functional, organism-based
[13] = system: Mycobacterium tuberculosis; test: Inhibition of Mycobacterium tuberculosis isocitrate lyase at 0.05 microg/ml relative to control; details: dose 0.05 µg/ml

SMILES: Nc1ccc(C(=O)O)c(O)c1 [AMINOSALICYLIC ACID]
- MIC [1]: ≥ 125 µM

SMILES: CCCCCCCCCCCCC(=O)NNC(=O)c1c(O)c2ccccc2n(CC)c1=O
- IC50 [2]: 134.4 µg/mL (≈ 303 µM)

SMILES: COC(=O)/C=C/C(=O)c1ccc(OC)cc1
- MIC [3]: 0.25 µg/mL (≈ 1.14 µM)
- IC50 ([4]; read-out: IC50): 30.9 µM

SMILES: Nc1ccc(S(=O)(=O)Nc2nccs2)cc1 [SULFATHIAZOLE]
- MIC [1]: ≥ 125 µM

SMILES: C=C(CC(=O)O)C(=O)O [ITACONATE]
- Ki [5]: 120 µM

SMILES: O=C(O)CC(O)C(=O)O (centres undefined)
- inhibition [6]: 50%

SMILES: O=C(O)[C@@H](C[N+](=O)[O-])[C@@H](O)C(=O)O
- Kinact [7]: 1.3 10^3/M.s

SMILES: O=C(O)[C@H]1O[C@H]1C(=O)O
- Kinact [7]: 0.01 10^3/M.s

SMILES: O=C(O)C(=O)O [OXALIC ACID]
- Ki [8]: 400 µM

SMILES: O=C(O)/C(O)=C/C(=O)c1ccccc1
- IC50 [9]: 2 µM

SMILES: COc1ccc2c(c[n+](C)c3c4cc5c(cc4ccc23)OCO5)c1OC [CHELERYTHRINE]
- MIC [10]: 8 µg/mL

SMILES: O=c1ccc2ccc(O)c(O)c2o1 [DAPHNETIN]
- IC50 [4]: 4.34 µg/mL
- MIC [11]: 128 µg/mL (≈ 719 µM)

SMILES: O=CC(=O)O [GLYOXYLATE]
- Ki [8]: 900 µM

SMILES: O=C(O)C(=O)CBr [BROMOPYRUVATE]
- IC50 [12]: 3 µM

SMILES: COc1ccc2cc(CCC(=O)CC(Nc3ccc(C(=O)O)cc3)c3ccc(Cl)cc3)ccc2c1 (centres undefined)
- inhibition [13]: 57.4%

SMILES: O=C(O)CC[N+](=O)[O-]
- Ki [5]: 120 µM

SMILES: C=C(OP(=O)(O)O)C(=O)O [PHOSPHOENOLPYRUVATE]
- Ki [8]: 200 µM
